The text below walks through data of PubChem BioAssay AID624491 (Broad Institute, 2012).

The structures appear in SMILES notation.

The test concerns D54 ERlucT glycosylation luciferase reporter, luminescence, 24 h. The experiment in a line: blockers of NLG process in reporter cells – D54 ERlucT cells, luminescence, cherry-picks, dose response (AID 624491).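 Also: signal gain reflects blocked N-linked glycosylation of a luciferase reporter; actives raise luciferase signal so AC26 marks activators of the reporter.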
In the case of `Cc1ccc(C(=O)N2CCC(C(=O)Nc3cccc([N+](=O)[O-])c3)CC2)cc1`, the AC26 is 804 nM.
For `CCOC(=O)c1ccc(N=c2sc(C(=O)OC)cc(=O)n2Cc2ccco2)cc1` the value was 3830 nM; for `COc1ccc(/C(C)=N/NC(=O)c2ccccc2OCc2ccccc2)c(OC)c1`, 121 nM.
In the case of `CCOC(=O)N/N=C/c1ccc(N(CC)CC)cc1O`, the AC26 was 2990 nM.
For `CN(C)CCc1cc2c(c3c1ccc1ccccc13)OCO2` the value was 5320 nM.
For `COc1cc(NC(=O)c2cc(-c3ccccc3)nc3c2cnn3C(C)C)cc(OC)c1OC` the value was 1150 nM.
For `CC1(C)Cc2nc3sc4c(SCC(=O)NCc5ccccc5)ncnc4c3cc2CO1` the value was 160 nM; for `O=c1[nH]c(=O)n([C@H]2C[C@H](O)[C@@H](CO)O2)cc1I`, 5190 nM.
For `Cc1cc2nnc(SCC(=O)NCc3ccco3)n2c2ccccc12`, the AC26 was 1360 nM.
To `CCOc1ccc(Nc2nc(N(C)c3ccccc3)nc(N)c2[N+](=O)[O-])cc1` belongs 92.1 nM.
To `CCOC(=O)c1[nH]c(C)c(C(=O)OCC(=O)NC(C)c2ccc(F)cc2)c1C` (configuration not stated) belongs 3150 nM; to `COc1cc2cnc(-c3ccccc3)cc2cc1OC`, 2360 nM; to `Nc1nc(-c2ccccc2)cc(N2CCCCC2)n1`, 4270 nM.
Turning to `Cc1ccc2c(c1)[C@H]1[C@H](CO2)[C@H](c2ccccc2)[C@]2(C)C(=O)Nc3ccc(Br)cc3C(=O)N12`, the AC26 was 1430 nM.
In the case of `Cc1nnc2c(NCCC(C)C)nc3ccccc3n12`, the AC26 was 6080 nM.
For `Oc1ccc(Nc2nc(NCC3CCCO3)c3ccccc3n2)cc1` (configuration not stated) the value was 1110 nM; for `Cc1cc(=O)[nH]c2c(C)cc(S(=O)(=O)N3CCCCC3)cc12`, 4410 nM; for `NC(=O)c1cccc(Nc2nc(C(N)CCc3ccccc3)cs2)n1` (configuration not stated), 8640 nM.
For `Cc1ccc(C)n1-c1cccc(NC(=O)c2ccccc2)c1` the value was 8830 nM; for `CC(=O)c1cccc(-c2ccnc3c2CC(C(=O)NCc2ccco2)O3)c1` (configuration not stated), 967 nM; for `CC(=O)c1ccc(N2CCN(C(=O)c3cccc(Oc4ccccc4)c3)CC2)cc1`, 1140 nM.
To `Cc1ccc2c(c1)c1ccc3c(c1n2C)C(=O)C=CC3=O` belongs 948 nM; to `COc1ccc(NC(=O)C2Cc3c(-c4cccc(NC(C)=O)c4)ccnc3O2)cc1OC` (configuration not stated), 2270 nM.
`COc1cc(OC)cc(C(=O)N/N=C/c2ccc(OC)c(COc3ccc(F)cc3)c2)c1`: the AC26 is 2250 nM.
Take `Cc1ccc2nc(/C(C#N)=C/c3cn[nH]c3-c3ccc(F)cc3)[nH]c2c1`: the AC26 was 1170 nM.
For `CN(C)S(=O)(=O)c1ccc(N2CCCC2)c(C(=O)Nc2nc(-c3ccc(F)cc3)cs2)c1` the value was 1550 nM; for `COc1ccc(-n2c(=S)[nH]c3cc(C(=O)Nc4ccc(F)cc4)ccc3c2=O)c(OC)c1`, 4550 nM.
`COc1ccc2nc3ccccc3nc2c1NC(=O)c1ccccc1Cl`: the AC26 is 11400 nM.
For `Cc1cc(NC(=O)NC(=O)c2ccccc2NC(=O)C(C)N)ccc1Oc1ncc(Br)cn1` (configuration not stated), the AC26 is 1060 nM.
To `CCOC(=O)c1ccc(/C=C2/C=C(c3ccccc3)N(c3ccc(Cl)c(C(=O)O)c3)C2=O)cc1` belongs 1840 nM.
As to `O=CC1=C(c2ccccc2)Oc2ccccc2O1`, the AC26 is 10300 nM.
`CC1CC(C)CN(C(=O)/C=C/c2ccc([N+](=O)[O-])s2)C1` (configuration not stated): the AC26 was 8460 nM.
Consider `CC(=O)Nc1cccc(-c2ccnc3c2CC(C(=O)Nc2ccc4c(c2)OCO4)O3)c1` (configuration not stated), for which the AC26 was 4550 nM.
Turning to `Cc1ccc(S/C=C\C(=O)c2ccccc2)cc1`, the AC26 was 3170 nM.
In the case of `COc1cccc(/C=C2\SC(=S)N(CCC(=O)N3CCCCC3)C2=O)c1`, the AC26 is 5770 nM.
Turning to `Cc1nnc2c3ccccc3c(-c3ccccc3)nn12`, the AC26 was 2870 nM.
Consider `CC1(C)Cc2c(c(N3CCOCC3)nc3snc(N)c23)CO1`, for which the AC26 is 502 nM.
On to `CC1=Nc2cc(C(=O)NCC3CCCO3)ccc2Sc2ccc(C)cc21` (configuration not stated), for which the AC26 was 662 nM.
For `COc1ccc(/C=N/NC(=O)c2c(C)nc3ccc(Br)cn23)cc1OC` the value was 2520 nM; for `COc1ccc(S(=O)Cc2ccc(C(=O)N3CCN(c4cccc(C)c4C)CC3)o2)cc1` (configuration not stated), 1430 nM.
To `CC1CN(c2nc(-c3ccccc3)nnc2-c2ccccc2)CC(C)O1` (configuration not stated) belongs 368 nM; to `CN(C)S(=O)(=O)c1ccc(N2CCCC2)c(C(=O)Nc2cccc(F)c2)c1`, 931 nM.
For `COc1ccc(C2C(C(=O)Nc3cc(OC)c(OC)c(OC)c3)c3ccccc3C(=O)N2C)cc1` (configuration not stated) the value was 5180 nM.
For the molecule `O=C(c1ccc2ncsc2c1)N1CCN(c2cccc(C(F)(F)F)c2)CC1`, the AC26 is 4190 nM.
For `COc1cc(-c2nnc(SCC3(c4ccc(Br)cc4)OCCO3)o2)cc(OC)c1OC` the value was 210 nM; for `COc1cc(C#Cc2ccc3cc(CCCO)oc(=O)c3c2)cc(OC)c1`, 161 nM.
To `CCN(CCCNC(=O)COc1cc(=O)n(CC)c2ccccc12)Cc1ccccc1` belongs 2530 nM; to `COc1ccc(CNC(=O)c2cccc3c(-c4cccnc4)coc23)cc1OC`, 2690 nM.
For `COc1ccc(/C=N/NC(=O)c2ccccc2OCc2ccccc2)c(OC)c1` the value was 1400 nM.
Consider `Cc1c(C(=O)N/N=C/c2cccnc2)sc(N)c1C#N`, for which the AC26 is 2000 nM.
To `CNC(=O)c1cccc(NC(=O)c2ccccc2OCc2ccccc2)c1` belongs 355 nM.
For `Cc1ccc(C2=NN(C(=O)CSc3nccn3C)C(c3ccco3)C2)cc1` (configuration not stated) the value was 6070 nM; for `OC1CCCN(Cc2ccc3ccc4cccc5ccc2c3c45)C1` (configuration not stated), 4270 nM; for `C=C(C)Cc1c(C)c(C#N)c2nc3ccccc3n2c1NCCCN(C)C`, 1080 nM.
For `O=C(Nc1ccccc1O)c1ccc(NC(=O)C2CC2)cc1` the value was 4330 nM; for `Cc1cc(Sc2ccc([N+](=O)[O-])cn2)ccc1Br`, 6940 nM; for `COc1cc(OC)cc(C(=O)N2CC(=O)Nc3ccccc32)c1`, 565 nM.
Turning to `CCCNC(=O)c1cc(-c2ccco2)on1`, the AC26 was 3780 nM.
As to `CCNc1ccc(C(=O)OCC)cc1NC(=O)c1cccc(N(C)C)c1`, the AC26 is 3160 nM.
To `O=C(NCc1ccccc1)C1Cc2c(-c3cccc(F)c3)ccnc2O1` (configuration not stated) belongs 11.2 nM; to `COc1ccc(-c2cnc3c(NC=O)cc(-c4ccccc4)cn23)cc1OC`, 97.1 nM; to `Cc1[nH]nc2c1C(c1ccc(-c3ccc(Cl)cc3)o1)C(C#N)=C(N)O2` (configuration not stated), 1140 nM.
For `COc1cc(NC(C(=O)Nc2cccc(C(C)=O)c2)c2ccccc2)cc(OC)c1OC` (configuration not stated) the value was 890 nM.
Consider `C[C@@]12C(=O)Nc3cc(Cl)ccc3C(=O)N1[C@H]1c3ccccc3OC[C@@H]1[C@@H]2c1ccccc1`, for which the AC26 was 397 nM.
To `Cn1cc(/C=N/n2cnc3scc(-c4ccc(Cl)cc4)c3c2=O)c2ccccc21` belongs 58.4 nM; to `Cc1ccc(C(=O)N/C(=C\c2cccs2)C(=O)NCCc2c[nH]c3ccccc23)cc1`, 378 nM.
With `CCOC(=O)c1c(CN(C)C)n(C)c2c(O)c(N=NC(N)=O)c3ccc(Br)cc3c12`, the AC26 was 242 nM.
As to `CCOc1cc(C(=O)Nc2ccc(N3CCOCC3)cc2)cc(Br)c1OC`, the AC26 is 2770 nM.
Take `Cc1ccc2nc(-c3ccncc3)cc(C(=O)Nc3ccncc3)c2c1`: the AC26 was 3050 nM.
Turning to `COc1ccccc1-c1nnc2sc(-c3cc4ccccc4o3)nn12`, the AC26 is 63.7 nM.
Turning to `O=C(/C=C/c1cccc(Br)c1)c1ccc2c(c1)OCO2`, the AC26 was 7470 nM.
With `COc1ccc(Cl)cc1NC(=O)Nc1ccc(C(=O)N2CCCC2)cc1`, the AC26 was 4030 nM.
To `COc1cccc(N2CCN(C(=O)c3ccc(CS(=O)c4ccc(C)cc4)o3)CC2)c1` (configuration not stated) belongs 110 nM; to `CN(C)CCN1C(=O)c2cccc3cc([N+](=O)[O-])cc(c23)C1=O`, 73.5 nM; to `O=C1CCCN1CCCNc1nc(NCc2ccccc2)nc2ccsc12`, 4240 nM.
Take `CCNC(=O)c1cc2c(=O)n3cccc(C)c3nc2n(CCc2ccccc2)c1=N`: the AC26 is 1520 nM.
Take `O=c1cc(-c2ccccc2)[nH]c2cc(F)ccc12`: the AC26 is 327 nM.
As for `O=C(CCl)N1CCCC1c1ccc2c(c1)OCCO2` (configuration not stated), the AC26 is 608 nM.
As for `Cc1ccccc1OCC(O)CN1CCN(CCN2C(=O)c3cccc4cccc(c34)C2=O)CC1` (configuration not stated), the AC26 was 13500 nM.
For `COc1ccc(CC(=O)N(Cc2ccccc2)c2ccc(C)cc2)cc1S(=O)(=O)N1CCOCC1` the value was 1160 nM; for `COc1cc(/C=C2/CCC/C(=C\c3cc(O)c(OC)c(Cl)c3)C2=O)cc(Cl)c1O`, 2230 nM.
For `Cc1ccc(C)c(Cn2nnc3c(=O)[nH]c(C4CCN(C(=O)c5ccco5)CC4)nc32)c1` the value was 1110 nM; for `COC(=O)Nc1nc(C)c(C(=O)c2ccccc2)s1`, 7950 nM; for `CC(=O)Nc1cc(-c2cccc(C(=O)N(C)C)c2)cn2c(-c3cccc(C(=O)N(C)C)c3)cnc12`, 897 nM.
In the case of `CC(O)CN=c1cc(-c2ccccc2)oc2ccc(Cl)cc12` (configuration not stated), the AC26 is 1150 nM.
Consider `COC(=O)c1cn(C(=O)/C=C/c2ccc(OC)c(OC)c2)c2ccccc12`, for which the AC26 is 1640 nM.
For the molecule `Cc1[nH]c2ccc(C(=O)N3CCN(c4cccc(Cl)c4)CC3)cc2c1C`, the AC26 was 8650 nM.
For `CN(C)CCCNc1cc(-c2ccccc2)nc2cc(-c3cccc(F)c3)nn12`, the AC26 was 5210 nM.
For `COc1ccc(Nc2nc(C)nc3sc4c(c23)CCC4)cc1O`, the AC26 is 11400 nM.
Turning to `O=C(N=Nc1c(O)[nH]c2ccc(Br)cc12)c1cc(-c2cccs2)nc2ccccc12`, the AC26 was 4850 nM.
With `Cc1cc(NC(=O)CSc2nc(-c3ccco3)cc(C(F)(F)F)n2)no1`, the AC26 is 565 nM.
Turning to `C[C@@]12C(=O)Nc3cc(Cl)ccc3C(=O)N1[C@H]1c3cc(Cl)ccc3OC[C@@H]1[C@@H]2c1ccccc1`, the AC26 was 4040 nM.
With `Cc1noc(C)c1COc1ccc(C(=O)NNC(=O)c2ccccc2F)cc1`, the AC26 was 33.4 nM.
Turning to `COc1ccc(/C=N/NC(=O)c2cccnc2)cc1COc1ccc(NC(C)=O)cc1`, the AC26 is 1990 nM.
`CCOC(=O)c1sc(Nc2nc(C)cc(C)n2)nc1C`: the AC26 is 949 nM.
As for `Cc1cc([N+](=O)[O-])ccc1Nc1nc2ccccc2n2cnnc12`, the AC26 was 8280 nM.
`COc1ccc(N2CCc3c(C)nc4c(OC)cc(OC)cc4c32)cc1`: the AC26 was 3770 nM.
